System: ISR pathway (ATF4 translation)
Test: ATF4 Nano Luciferase reporter integrated stress response (ISR) assay in H4 ATF4-NLuc cells
Conditions: Homo sapiens, H4 ATF4-NLuc (clone 17) cells; compound 30 minutes, then 50 um sodium arsenite for 6 hours; luminescence readout

IC50, 1.9 nM:
O=C(COc1ccc(Cl)c(F)c1)NC12CC(n3cnc([C@H]4C[C@@H](OC(F)(F)F)C4)c3)(C1)C2 [Example 61, 2-(4-chloro-3-fluoro-phenoxy)-N-[3-[4-[3-cis-(trifluoromethoxy)cyclobutyl]imidazol-1-yl]-1-bicyclo[1.1.1]pentanyl]acetamide]

Same assay, conditions: Homo sapiens, read-out: Activity (IC50), H4 ATF4-NLuc (clone 17) cells; compound 30 minutes, then 50 um sodium arsenite for 6 hours; luminescence readout

IC50, < 1000 nM:
O=C(COc1ccc(Cl)c(F)c1)NC12CC(c3nnc(CO[C@H]4C[C@@H](OC(F)(F)F)C4)o3)(C1)C2 [Example 53]
O=C(COc1ccc(Cl)c(F)c1)NC12CC(c3nnc(CCOC(F)(F)F)o3)(C1)C2 [Example 55]
O=C(COc1ccc(Cl)c(F)c1)NC12CC(c3cn(Cc4ccccc4)nn3)(C1)C2 [Example 58]
O=C(COc1ccc(Cl)c(F)c1)NC12CC(n3cnc([C@H]4C[C@@H](OC(F)(F)F)C4)c3)(C1)C2 [Example 61, 2-(4-chloro-3-fluoro-phenoxy)-N-[3-[4-[3-cis-(trifluoromethoxy)cyclobutyl]imidazol-1-yl]-1-bicyclo[1.1.1]pentanyl]acetamide]
O=C(COc1ccc(Cl)c(F)c1)NC12CC(n3cnc([C@H]4C[C@H](OC(F)(F)F)C4)c3)(C1)C2 [Example 62, 2-(4-chloro-3-fluoro-phenoxy)-N-[3-[4-[3-trans-(trifluoromethoxy)cyclobutyl]imidazol-1-yl]-1-bicyclo[1.1.1]pentanyl]acetamide]
O=C(CO[C@H]1C[C@@H](OC(F)(F)F)C1)NC12CC(n3cnc([C@H]4C[C@@H](OC(F)(F)F)C4)c3)(C1)C2 [Example 63, 2-[3-cis-(trifluoromethoxy)cyclobutoxy]-N-[3-[4-[3-cis-(trifluoromethoxy)cyclobutyl]imidazol-1-yl]-1-bicyclo[1.1.1]pentanyl]acetamide]
O=C(COc1ccc(Cl)c(F)c1)NC12CC(c3cn([C@H]4C[C@H](OC(F)(F)F)C4)nn3)(C1)C2 [Example 64, 2-(4-chloro-3-fluoro-phenoxy)-N-[3-[1-[3-trans-(trifluoromethoxy)cyclobutyl]triazol-4-yl]-1-bicyclo[1.1.1]pentanyl]acetamide]
O=C(COc1ccc(Cl)c(F)c1)NC12CC(c3cn([C@H]4C[C@@H](OC(F)(F)F)C4)nn3)(C1)C2 [Example 65, 2-(4-chloro-3-fluoro-phenoxy)-N-[3-[1-[3-cis-(trifluoromethoxy)cyclobutyl]triazol-4-yl]-1-bicyclo[1.1.1]pentanyl]acetamide]
O=C(COc1ccc(Cl)c(F)c1)NC12CC(n3cnc(C4CN(CC(F)(F)F)C4)c3)(C1)C2 [Example 67, 2-(4-chloro-3-fluoro-phenoxy)-N-[3-[4-[1-(2,2,2-trifluoroethyl)azetidin-3-yl]imidazol-1-yl]-1-bicyclo[1.1.1]pentanyl]acetamide]
O=C(COc1ccc(Cl)cc1)NC12CC(n3cnc([C@H]4C[C@@H](OC(F)(F)F)C4)c3)(C1)C2 [Example 68, 2-(4-chlorophenoxy)-N-[3-[4-[3-cis-(trifluoromethoxy)cyclobutyl]imidazol-1-yl]-1-bicyclo[1.1.1]pentanyl]acetamide]
O=C(COc1ccc(Cl)cc1)NC12CC(n3cnc([C@H]4C[C@H](OC(F)(F)F)C4)c3)(C1)C2 [Example 69, 2-(4-chlorophenoxy)-N-[3-[4-[3-trans-(trifluoromethoxy)cyclobutyl]imidazol-1-yl]-1-bicyclo[1.1.1]pentanyl]acetamide]
O=C(COc1ccc(F)cc1)NC12CC(c3nnc([C@H]4C[C@@H](OC(F)(F)F)C4)o3)(C1)C2 [Example 71, 2-(4-fluorophenoxy)-N-[3-[5-[3-cis-(trifluoromethoxy)cyclobutyl]-1,3,4-oxadiazol-2-yl]-1-bicyclo[1.1.1]pentanyl]acetamide]
O=C(COc1ccc(F)cc1)NC12CC(c3nnc([C@H]4C[C@H](OC(F)(F)F)C4)o3)(C1)C2 [Example 72, 2-(4-fluorophenoxy)-N-[3-[5-[3-trans-(trifluoromethoxy)cyclobutyl]-1,3,4-oxadiazol-2-yl]-1-bicyclo[1.1.1]pentanyl]acetamide]
C#CCN(C(=O)COc1ccc(Cl)cc1)C12CC(c3nnc([C@H]4C[C@@H](OC(F)(F)F)C4)o3)(C1)C2 [Example 74, 2-(4-chlorophenoxy)-N-prop-2-ynyl-N-[1-[5-[3-cis-(trifluoromethoxy)cyclobutyl]-1,3,4-oxadiazol-2-yl]-3-bicyclo[1.1.1]pentanyl]acetamide]
O=C(NC12CC(c3nnc([C@H]4C[C@@H](OC(F)(F)F)C4)o3)(C1)C2)C1Cc2cc(Cl)ccc2O1 (stereo partly drawn) [Example 76, 5-chloro-N-[3-[5-[3-cis-(trifluoromethoxy)cyclobutyl]-1,3,4-oxadiazol-2-yl]-1-bicyclo[1.1.1]pentanyl]-2,3-dihydrobenzofuran-2-carboxamide]
O=C(CO[C@H]1C[C@@H](OC(F)(F)F)C1)NC12CC(c3cn(-c4ccc(Cl)c(F)c4)nn3)(C1)C2 [Example 77, N-[3-[1-(4-chloro-3-fluoro-phenyl)triazol-4-yl]-1-bicyclo[1.1.1]pentanyl]-2-[3-cis-(trifluoromethoxy)cyclobutoxy]acetamide]
O=C(CO[C@H]1C[C@@H](OC(F)(F)F)C1)NC12CC(c3cnn(-c4ccc(Cl)c(F)c4)n3)(C1)C2 [Example 78, N-[3-[2-(4-chloro-3-fluoro-phenyl)triazol-4-yl]-1-bicyclo[1.1.1]pentanyl]-2-[3-cis-(trifluoromethoxy)cyclobutoxy]acetamide]
O=C(COc1ccc(Cl)c(F)c1)NC12CC(c3cnn([C@H]4C[C@@H](OC(F)(F)F)C4)n3)(C1)C2 [Example 79, 2-(4-chloro-3-fluoro-phenoxy)-N-[3-[2-[3-cis-(trifluoromethoxy)cyclobutyl]triazol-4-yl]-1-bicyclo[1.1.1]pentanyl]acetamide]

IC50, 1000 to 10000 nM:
O=C(CCc1ccc(Cl)cn1)NC12CC(c3nnc([C@H]4C[C@@H](OC(F)(F)F)C4)o3)(C1)C2 [Example 56]
O=C(COc1ccc(Cl)c(F)c1)NC12CC(c3cn(C4CC(O)C4)nn3)(C1)C2 (centres unmarked) [Example 57]
O=C(CO[C@H]1C[C@@H](OC(F)(F)F)C1)NC12CC(c3nnc(-c4cncc(F)c4)o3)(C1)C2 [Example 73, N-[1-[5-(5-fluoro-3-pyridyl)-1,3,4-oxadiazol-2-yl]-3-bicyclo[1.1.1]pentanyl]-2-[3-cis-(trifluoromethoxy)cyclobutoxy]acetamide]
O=C(CC[C@H]1C[C@@H](OC(F)(F)F)C1)NC12CC(c3nnc(C4CC(OC(F)(F)F)C4)o3)(C1)C2 (stereo partly drawn) [Example 75, 3-[3-cis-(trifluoromethoxy)cyclobutyl]-N-[3-[5-[3-cis-(trifluoromethoxy)cyclobutyl]-1,3,4-oxadiazol-2-yl]-1-bicyclo[1.1.1]pentanyl]propanamide]
O=C(COC1CC2C(C1)C2(F)F)NC12CC(c3nnc([C@H]4C[C@@H](OC(F)(F)F)C4)o3)(C1)C2 (stereo partly drawn) [Example 83, 2-[(6,6-difluoro-3-bicyclo[3.1.0]hexanyl)oxy]-N-[3-[5-[3-cis-(trifluoromethoxy)cyclobutyl]-1,3,4-oxadiazol-2-yl]-1-bicyclo[1.1.1]pentanyl]acetamide]

Same assay, conditions: read-out: Activity (IC50); H4 ATF4-NLuc (clone 17) cells; compound 30 minutes, then 50 um sodium arsenite for 6 hours; luminescence readout

IC50, < 1000 nM:
O=C(COc1ccc(Cl)c(F)c1)NC12CC(C3CN(CC4CCC4)C(=O)O3)(C1)C2 (centres unmarked) [Example 60]

IC50, 1000 to 10000 nM:
O=C(COc1ccc(Cl)c(F)c1)NC12CC(C3CN(C4CCC4)C(=O)O3)(C1)C2 (centres unmarked) [Example 59]

Reference: patent publication US11851440B2, “Modulators of eukaryotic initiation factor 2B, compositions and methods” (Denali Therapeutics Inc., priority 2017, dated 2023)
